Laboratory results: PubChem BioAssay AID1963827 (Molecular Pharmacology Branch, DTP, NCI, 2024)
pIC50: −log10 of the molar value.

System: 994946-033-R-J1-PDC complex spheroid viability
Assay: Anticancer human tumor 994946-033-R-J1-PDC patient-derived melanoma cell line growth inhibition [POLQ]
Details: for pIC50: curve of first compound; for viability, T/C: stronger effect = lower value; active means viability on the fitted dose curve at most 10% of control; inactive means the rest
Method in brief: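 PDC + HUVEC + MSC complex spheroids; POLQ inhibitors ± partner drugs; top conc. at/near clinical Cmax, else 10 microM (SN-38 1 microM), half-log dilutions; 37 degrees C, 5% CO2.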

[1] = second compound 0.0316 µM, first compound 0.0316 µM
[2] = second compound 0.0316 µM, first compound 0.1 µM
[3] = second compound 0.0316 µM, first compound 0.316 µM
[4] = second compound 0.0316 µM, first compound 1 µM
[5] = second compound 0.0316 µM, first compound 3.16 µM
[6] = second compound 0.0316 µM, first compound 10 µM
[7] = second compound 0.1 µM, first compound 0.0316 µM
[8] = second compound 0.1 µM, first compound 0.1 µM
[9] = second compound 0.1 µM, first compound 0.316 µM
[10] = second compound 0.1 µM, first compound 1 µM
[11] = second compound 0.1 µM, first compound 3.16 µM
[12] = second compound 0.1 µM, first compound 10 µM
[13] = second compound 0.316 µM, first compound 0.0316 µM
[14] = second compound 0.316 µM, first compound 0.1 µM
[15] = second compound 0.316 µM, first compound 0.316 µM
[16] = second compound 0.316 µM, first compound 1 µM
[17] = second compound 0.316 µM, first compound 3.16 µM
[18] = second compound 0.316 µM, first compound 10 µM
[19] = second compound 1 µM, first compound 0.0316 µM
[20] = second compound 1 µM, first compound 0.1 µM
[21] = second compound 1 µM, first compound 0.316 µM
[22] = second compound 1 µM, first compound 1 µM
[23] = second compound 1 µM, first compound 3.16 µM
[24] = second compound 1 µM, first compound 10 µM
[25] = second compound 3.16 µM, first compound 0.0316 µM
[26] = second compound 3.16 µM, first compound 0.1 µM
[27] = second compound 3.16 µM, first compound 0.316 µM
[28] = second compound 3.16 µM, first compound 1 µM
[29] = second compound 3.16 µM, first compound 3.16 µM
[30] = second compound 3.16 µM, first compound 10 µM
[31] = second compound 10 µM, first compound 0.0316 µM
[32] = second compound 10 µM, first compound 0.1 µM
[33] = second compound 10 µM, first compound 0.316 µM
[34] = second compound 10 µM, first compound 1 µM
[35] = second compound 10 µM, first compound 3.16 µM
[36] = second compound 10 µM, first compound 10 µM
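Further: spheroids exposed to drugs for 7 days.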
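Wherever viability, T/C is given: 100% = DMSO vehicle treated spheroids.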

Nc1ccn(C2OC(CO)C(O)C2(F)F)c(=O)n1 (stereo not given) + Nc1ccc(C#CCN(C(=O)Cc2ncc(C(F)(F)F)cc2C(F)(F)F)c2ccc(F)cc2)nn1
7.45: pIC50 (second compound 3.16 µM)
6.92: pIC50 (second compound 10 µM)
active: viability, T/C [4] 6.8% | viability, T/C [5] 9.12% | viability, T/C [6] 4.73% | viability, T/C [8] 6.85% | viability, T/C [9] 7.22% | viability, T/C [10] 8.61% | viability, T/C [11] 6.71% | viability, T/C [12] 2.46% | viability, T/C [15] 6.41% | viability, T/C [16] 6.86% | viability, T/C [17] 5.84% | viability, T/C [18] 3.65% | viability, T/C [21] 7.84% | viability, T/C [22] 6.62% | viability, T/C [23] 5.64% | viability, T/C [24] 2.7% | viability, T/C [28] 9.68% | viability, T/C [29] 8.92% | viability, T/C [30] 3.34% | viability, T/C [34] 7.83% | viability, T/C [35] 11.2% | viability, T/C [36] 6.31%
> 7.50: pIC50 (second compound 0.0316 µM) | pIC50 (second compound 0.1 µM) | pIC50 (second compound 0.316 µM) | pIC50 (second compound 1 µM)
inactive: viability, T/C [1] 19.8% | viability, T/C [2] 9.8% | viability, T/C [3] 13.9% | viability, T/C [7] 13.4% | viability, T/C [13] 26.9% | viability, T/C [14] 10.2% | viability, T/C [19] 49.5% | viability, T/C [20] 11.8% | viability, T/C [25] 53.2% | viability, T/C [26] 22.4% | viability, T/C [27] 8.85% | viability, T/C [31] 75.5% | viability, T/C [32] 56.2% | viability, T/C [33] 17.5%

CC1COCCN1c1cc(C2(S(C)(=N)=O)CC2)nc(-c2ccnc3[nH]ccc23)n1 (stereo not given) + COC1C(OC(N)=O)C(O)C(Oc2ccc3c(O)c(NC(=O)c4ccc(O)c(CC=C(C)C)c4)c(=O)oc3c2C)OC1(C)C
5.39: pIC50 (second compound 0.316 µM)
< 5.00: pIC50 (second compound 3.16 µM)
5.09: pIC50 (second compound 1 µM)
5.50: pIC50 (second compound 10 µM)
5.86: pIC50 (second compound 0.1 µM)
5.38: pIC50 (second compound 0.0316 µM)
inactive: viability, T/C [1] 134% | viability, T/C [2] 95.5% | viability, T/C [3] 99.4% | viability, T/C [4] 45.6% | viability, T/C [5] 61.9% | viability, T/C [6] 41.1% | viability, T/C [7] 113% | viability, T/C [8] 101% | viability, T/C [9] 68.2% | viability, T/C [10] 65.3% | viability, T/C [11] 29.2% | viability, T/C [12] 36.1% | viability, T/C [13] 78.1% | viability, T/C [14] 116% | viability, T/C [15] 92.4% | viability, T/C [16] 63.9% | viability, T/C [17] 61.5% | viability, T/C [18] 34.1% | viability, T/C [19] 138% | viability, T/C [20] 105% | viability, T/C [21] 80.8% | viability, T/C [22] 68.9% | viability, T/C [23] 52.9% | viability, T/C [24] 49.6% | viability, T/C [25] 101% | viability, T/C [26] 90.5% | viability, T/C [27] 80.5% | viability, T/C [28] 75% | viability, T/C [29] 54.6% | viability, T/C [30] 57.9% | viability, T/C [31] 103% | viability, T/C [32] 85.4% | viability, T/C [33] 99% | viability, T/C [34] 102% | viability, T/C [35] 50% | viability, T/C [36] 37%

CC1COCCN1c1cc(-c2ccnn2C)c2ccnc(-c3ccn[nH]3)c2n1 (stereo not given) + Nc1ccc(C#CCN(C(=O)Cc2ncc(C(F)(F)F)cc2C(F)(F)F)c2ccc(F)cc2)nn1
7.13: pIC50 (second compound 1 µM)
inactive: viability, T/C [1] 65.8% | viability, T/C [2] 41.7% | viability, T/C [3] 21.8% | viability, T/C [4] 29.1% | viability, T/C [5] 19.8% | viability, T/C [6] 15.4% | viability, T/C [7] 86.3% | viability, T/C [8] 31.8% | viability, T/C [9] 29.6% | viability, T/C [10] 26% | viability, T/C [11] 16.3% | viability, T/C [12] 9.84% | viability, T/C [13] 70.5% | viability, T/C [14] 40.5% | viability, T/C [15] 26.1% | viability, T/C [16] 23.6% | viability, T/C [17] 17.5% | viability, T/C [18] 9.71% | viability, T/C [19] 75.5% | viability, T/C [20] 33.7% | viability, T/C [21] 32.9% | viability, T/C [22] 33.6% | viability, T/C [23] 15.4% | viability, T/C [24] 14.1% | viability, T/C [25] 60.7% | viability, T/C [26] 42.4% | viability, T/C [27] 22.1% | viability, T/C [28] 21.1% | viability, T/C [29] 25.6% | viability, T/C [30] 14.1% | viability, T/C [31] 76.1% | viability, T/C [32] 44% | viability, T/C [33] 21.1% | viability, T/C [34] 21.7% | viability, T/C [35] 21.6% | viability, T/C [36] 15.8%
7.09: pIC50 (second compound 10 µM)
7.19: pIC50 (second compound 0.0316 µM)
7.21: pIC50 (second compound 3.16 µM)
7.14: pIC50 (second compound 0.1 µM) | pIC50 (second compound 0.316 µM)

CC(C)n1c(=O)n(C)c2cnc3cc(F)c(-c4ccc(OCCCN5CCCCC5)nc4)cc3c21 + COC1C(OC(N)=O)C(O)C(Oc2ccc3c(O)c(NC(=O)c4ccc(O)c(CC=C(C)C)c4)c(=O)oc3c2C)OC1(C)C
5.28: pIC50 (second compound 1 µM)
5.34: pIC50 (second compound 0.0316 µM)
5.07: pIC50 (second compound 0.316 µM)
5.20: pIC50 (second compound 10 µM)
5.30: pIC50 (second compound 0.1 µM)
< 5.00: pIC50 (second compound 3.16 µM)
inactive: viability, T/C [1] 81.5% | viability, T/C [2] 65.5% | viability, T/C [3] 81.1% | viability, T/C [4] 59.1% | viability, T/C [5] 60% | viability, T/C [6] 36.8% | viability, T/C [7] 73.7% | viability, T/C [8] 100% | viability, T/C [9] 78.3% | viability, T/C [10] 69.8% | viability, T/C [11] 65.2% | viability, T/C [12] 31.6% | viability, T/C [13] 74.5% | viability, T/C [14] 76.7% | viability, T/C [15] 68.2% | viability, T/C [16] 68.3% | viability, T/C [17] 79.8% | viability, T/C [18] 46.5% | viability, T/C [19] 86.7% | viability, T/C [20] 86.5% | viability, T/C [21] 87% | viability, T/C [22] 102% | viability, T/C [23] 64.5% | viability, T/C [24] 31.6% | viability, T/C [25] 81.8% | viability, T/C [26] 68.5% | viability, T/C [27] 92.9% | viability, T/C [28] 93.8% | viability, T/C [29] 66.1% | viability, T/C [30] 50.6% | viability, T/C [31] 76.1% | viability, T/C [32] 65.9% | viability, T/C [33] 66.1% | viability, T/C [34] 82% | viability, T/C [35] 62.1% | viability, T/C [36] 40.1%

O=C(c1cc(Cc2n[nH]c(=O)c3ccccc23)ccc1F)N1CCN(C(=O)C2CC2)CC1 + Nc1ccc(C#CCN(C(=O)Cc2ncc(C(F)(F)F)cc2C(F)(F)F)c2ccc(F)cc2)nn1
inactive: viability, T/C [1] 116% | viability, T/C [2] 88.8% | viability, T/C [3] 101% | viability, T/C [4] 72.6% | viability, T/C [5] 76.6% | viability, T/C [6] 37.3% | viability, T/C [7] 61.7% | viability, T/C [8] 113% | viability, T/C [9] 70.5% | viability, T/C [10] 78.6% | viability, T/C [11] 83.5% | viability, T/C [12] 30.6% | viability, T/C [13] 101% | viability, T/C [14] 84.9% | viability, T/C [15] 84% | viability, T/C [16] 55.8% | viability, T/C [17] 70.8% | viability, T/C [18] 29.6% | viability, T/C [19] 78.9% | viability, T/C [20] 111% | viability, T/C [21] 66% | viability, T/C [22] 92.8% | viability, T/C [23] 55.9% | viability, T/C [24] 42.6% | viability, T/C [25] 94.8% | viability, T/C [26] 80.3% | viability, T/C [27] 77.8% | viability, T/C [28] 58.8% | viability, T/C [29] 57.9% | viability, T/C [30] 37.1% | viability, T/C [31] 66.4% | viability, T/C [32] 87.3% | viability, T/C [33] 70.3% | viability, T/C [34] 92.3% | viability, T/C [35] 80.1% | viability, T/C [36] 36.8%
5.42: pIC50 (second compound 3.16 µM)
5.17: pIC50 (second compound 0.0316 µM)
5.39: pIC50 (second compound 0.316 µM)
5.19: pIC50 (second compound 0.1 µM)
5.15: pIC50 (second compound 10 µM)
5.28: pIC50 (second compound 1 µM)
